Here are results for 14 compounds from patent publication US12653830B2, “Substituted imidazoquinoxaline compounds and uses thereof” (Impact Therapeutics (Shanghai), Inc, priority 2019, dated 2026).

Like-named read-outs stand apart in the source and are kept apart here.

Experiment [1] relates to human breast cancer cell MDA-MB-468. As to the kind of experiment: MTT proliferation assay, MDA-MB-468. The format is cell-based. Particulars: 7 days, single agent, read-out: IC50, inhibition of proliferation of MDA-MB-468. The method, then:
Determination of the Inhibitory Effect of the Compound of Example 2 and its Analogues on the Proliferation of Human Breast Cancer Cell MDA-MB-468 Using MTT Assay
The human breast cancer cells MDA-MB-468 were cultured in RPMI 1640 medium with 10% FBS and used at 90% confluence. The MDA-IVB-468 cells were digested with trypsinase and centrifuged at 800 rpm for 5 minutes. The supernatant was discarded and the cell pellets were resuspended with fresh medium and counted. Cells were seeded to 96-well cell culture plates with appropriate cell density and incubated overnight at 37° C., 5% CO2. […] 5 μL of solutions of each concentration was added to 120 μL of medium (diluted by 25 times) and mixed by shaking. The culture medium of cells cultured overnight was discarded and replaced with 195 μL/well of fresh medium (RPMI 1640+5% FBS) and 5 μL/well of diluted medium containing the test compound of corresponding concentrations (the final concentration of DMSO was 1%), and the culture plate was then returned to 5% CO2 incubator at 37° C. for 7 days (on the fourth day, dressing was changed once and culture was continued). On the day of experiment, culture medium was discarded and replaced with 100 μL/well of fresh serum-free DMEM medium containing MTT (0.5 mg/mL), and the culture was continued. After 4 hours, medium was discarded and replaced with 100 μL/well of DMSO, the plates were shaken for 10 minutes in darkness and the absorbance was measured at the wavelengths of 552 and 693 nm using a multi-function plate reader. Graph Pad Prism 6.0 was used to analyze the data. The inhibitory effects of compounds on cell proliferation were plotted based on cell viability vs. the logarithm of compound concentration. Cell viability %=(ODcompound−ODbackground)/(ODDMSO−ODbackground)×100.
Table 4 summarizes the inhibitory effect data (IC50) of some compounds on the proliferation of human breast cancer cell MDA-MB-468.

For experiment [2], the system named is human colon cancer cell SW620. As to the kind of experiment: MTT proliferation assay in combination with CPT-11, SW620. The format is cell-based. Conditions: medium containing 205 nM CPT-11, 5 days, read-out: IC50, inhibition of proliferation of SW620 combined with CPT-11. The method, then:
Determination of the Inhibitory Effect of the Compound of Example 2 and its Analogues in Combination with CPT-11 on the Proliferation of Human Colon Cancer Cell SW620 Using MTT Assay
The human colon cancer cells SW620 were cultured in RPMI 1640 medium with 10% FBS and used at about 90% confluence for experiments. The SW620 cells were digested with trypsinase and centrifuged at 800 rpm for 5 minutes. The supernatant was discarded and the cell pellets were resuspended with fresh medium (RPMI 1640+10% FBS). The cells were seeded into 96-well cell culture plates with appropriate cell density and incubated at 37° C. overnight in a 5% CO2 incubator. […] The first concentration was 1 μM or 0.333 μM, the last concentration was DMSO negative control (0 μM). 5 μL of solutions of each concentration was added to 120 μL of medium (a 25 times dilution) and mixed by shaking. The cells were cultured overnight and the culture medium was replaced with 195 μL/well of fresh medium containing 205 nM CPT-11 and 5 μL/well of medium containing the test compound (the final concentration of DMSO was 1%). The culture plates were returned to incubator and cultured at 37° C., 5% CO2 for 5 days. At the day of experiment, medium was discarded and replaced with 100 μL of fresh serum-free DMEM medium containing MTT (0.5 mg/mL), and the culture was continued. 4 hours later, the medium was discarded and replaced with 100 μL/well of DMSO, the plate was shaken for 10 minutes in dark and the absorbance was measured at the wavelengths of 552 and 690 nm using a multi-function plate reader. Data were analyzed by Graph Pad Prism 6.0. The inhibitory effects of compounds on cell proliferation were plotted based on cell viability vs. the logarithm of compound concentration. Cell viability %=(ODcompound−ODbackground)/(ODDMSO−ODbackground)×100.
Table 3 summarizes the inhibitory effect data (IC50) of some compounds combined with CPT-11 on the proliferation of human colon cancer cell SW620.

The next experiment concerns the target T1, ATM kinase (Homo sapiens, UniProt Q13315).
T1 construct: purchased Eurofins 14-933
Description: In vitro ATM kinase assay (Cisbio HTRF, p53 substrate). The format is biochemical. Conditions: 30 μM ATP; for inhibition at 0.0001 µM: Conc. 0.1 nM. The method, then: Determination of the Inhibitory Effect In Vitro of the Compound of Example 2 and its Analogues on ATM Using In Vitro ATM Kinase Assay
ATM enzymatic activity was measured using Cisbio's HTRF reagent in a 384-well plate (Greiner, #784075). […] The mixtures were centrifuged at 1000 rpm for 1 minute, and reacted in dark for 30 minutes at room temperature. Then, 5 μL of EDTA termination solution (250 mm) was added to terminate the reaction. After 5 μL of detection mixture (Anti-phospho-p53 (ser15)-K (Cisbio, #61P08KAE, 0.084 ng/μL) and Anti-GST-d2 (Cisbio, #61GSTDLA, 5.00 ng/μL)) was finally added to each well, the mixtures were cultured at room temperature over night, and the fluorescence values at 665 nm and 615 nm were measured on Envision 2104. The final concentration of each reagent of the experiment was as follows: 12.5 mM HEPES (pH8.0), 0.5% glycerol, 0.005% Brij-35, 0.625 mM DTT, 0.0125% BSA, 15 nM p53, 0.25 ng/μL ATM, 30 μM ATP, 2.5 mM Mg(AcO)2, 2.5 mM MnCl2, 62.5 mM EDTA, 0.021 ng/μL Anti-phospho-p53, 1.25 ng/μL Anti-GST-d2.
Relative fluorescence ratio was calculated: Ratio665 nm/615 nm−Ratiobackground, and inhibition rate %=(1−(relative fluorescence ratio of test compound well−relative fluorescence ratio of positive control well)/(relative fluorescence ratio of negative control well−relative fluorescence ratio of positive control well))×100 was calculated. Data were analyzed using GraphPad Prism6.0 and fitted using the curve equation: Y=Bottom+(Top−Bottom)/(1+10^((Log IC50−X)*HillSlope)), and IC50 values were calculated.

[3] abbreviates: Homo sapiens, MDA-MB-468, 168 h.
The mark [4] stands for this setting: Conc. 1 nM, read-out: Inh % (inhibitory effect on ATM kinase activity).
Where [5] appears, read: Conc. 10 nM, read-out: Inh % (inhibitory effect on ATM kinase activity).
The mark [6] stands for this setting: read-out: Inh % (inhibitory effect on ATM kinase activity).

T1 sequence (Q13315 whole entry): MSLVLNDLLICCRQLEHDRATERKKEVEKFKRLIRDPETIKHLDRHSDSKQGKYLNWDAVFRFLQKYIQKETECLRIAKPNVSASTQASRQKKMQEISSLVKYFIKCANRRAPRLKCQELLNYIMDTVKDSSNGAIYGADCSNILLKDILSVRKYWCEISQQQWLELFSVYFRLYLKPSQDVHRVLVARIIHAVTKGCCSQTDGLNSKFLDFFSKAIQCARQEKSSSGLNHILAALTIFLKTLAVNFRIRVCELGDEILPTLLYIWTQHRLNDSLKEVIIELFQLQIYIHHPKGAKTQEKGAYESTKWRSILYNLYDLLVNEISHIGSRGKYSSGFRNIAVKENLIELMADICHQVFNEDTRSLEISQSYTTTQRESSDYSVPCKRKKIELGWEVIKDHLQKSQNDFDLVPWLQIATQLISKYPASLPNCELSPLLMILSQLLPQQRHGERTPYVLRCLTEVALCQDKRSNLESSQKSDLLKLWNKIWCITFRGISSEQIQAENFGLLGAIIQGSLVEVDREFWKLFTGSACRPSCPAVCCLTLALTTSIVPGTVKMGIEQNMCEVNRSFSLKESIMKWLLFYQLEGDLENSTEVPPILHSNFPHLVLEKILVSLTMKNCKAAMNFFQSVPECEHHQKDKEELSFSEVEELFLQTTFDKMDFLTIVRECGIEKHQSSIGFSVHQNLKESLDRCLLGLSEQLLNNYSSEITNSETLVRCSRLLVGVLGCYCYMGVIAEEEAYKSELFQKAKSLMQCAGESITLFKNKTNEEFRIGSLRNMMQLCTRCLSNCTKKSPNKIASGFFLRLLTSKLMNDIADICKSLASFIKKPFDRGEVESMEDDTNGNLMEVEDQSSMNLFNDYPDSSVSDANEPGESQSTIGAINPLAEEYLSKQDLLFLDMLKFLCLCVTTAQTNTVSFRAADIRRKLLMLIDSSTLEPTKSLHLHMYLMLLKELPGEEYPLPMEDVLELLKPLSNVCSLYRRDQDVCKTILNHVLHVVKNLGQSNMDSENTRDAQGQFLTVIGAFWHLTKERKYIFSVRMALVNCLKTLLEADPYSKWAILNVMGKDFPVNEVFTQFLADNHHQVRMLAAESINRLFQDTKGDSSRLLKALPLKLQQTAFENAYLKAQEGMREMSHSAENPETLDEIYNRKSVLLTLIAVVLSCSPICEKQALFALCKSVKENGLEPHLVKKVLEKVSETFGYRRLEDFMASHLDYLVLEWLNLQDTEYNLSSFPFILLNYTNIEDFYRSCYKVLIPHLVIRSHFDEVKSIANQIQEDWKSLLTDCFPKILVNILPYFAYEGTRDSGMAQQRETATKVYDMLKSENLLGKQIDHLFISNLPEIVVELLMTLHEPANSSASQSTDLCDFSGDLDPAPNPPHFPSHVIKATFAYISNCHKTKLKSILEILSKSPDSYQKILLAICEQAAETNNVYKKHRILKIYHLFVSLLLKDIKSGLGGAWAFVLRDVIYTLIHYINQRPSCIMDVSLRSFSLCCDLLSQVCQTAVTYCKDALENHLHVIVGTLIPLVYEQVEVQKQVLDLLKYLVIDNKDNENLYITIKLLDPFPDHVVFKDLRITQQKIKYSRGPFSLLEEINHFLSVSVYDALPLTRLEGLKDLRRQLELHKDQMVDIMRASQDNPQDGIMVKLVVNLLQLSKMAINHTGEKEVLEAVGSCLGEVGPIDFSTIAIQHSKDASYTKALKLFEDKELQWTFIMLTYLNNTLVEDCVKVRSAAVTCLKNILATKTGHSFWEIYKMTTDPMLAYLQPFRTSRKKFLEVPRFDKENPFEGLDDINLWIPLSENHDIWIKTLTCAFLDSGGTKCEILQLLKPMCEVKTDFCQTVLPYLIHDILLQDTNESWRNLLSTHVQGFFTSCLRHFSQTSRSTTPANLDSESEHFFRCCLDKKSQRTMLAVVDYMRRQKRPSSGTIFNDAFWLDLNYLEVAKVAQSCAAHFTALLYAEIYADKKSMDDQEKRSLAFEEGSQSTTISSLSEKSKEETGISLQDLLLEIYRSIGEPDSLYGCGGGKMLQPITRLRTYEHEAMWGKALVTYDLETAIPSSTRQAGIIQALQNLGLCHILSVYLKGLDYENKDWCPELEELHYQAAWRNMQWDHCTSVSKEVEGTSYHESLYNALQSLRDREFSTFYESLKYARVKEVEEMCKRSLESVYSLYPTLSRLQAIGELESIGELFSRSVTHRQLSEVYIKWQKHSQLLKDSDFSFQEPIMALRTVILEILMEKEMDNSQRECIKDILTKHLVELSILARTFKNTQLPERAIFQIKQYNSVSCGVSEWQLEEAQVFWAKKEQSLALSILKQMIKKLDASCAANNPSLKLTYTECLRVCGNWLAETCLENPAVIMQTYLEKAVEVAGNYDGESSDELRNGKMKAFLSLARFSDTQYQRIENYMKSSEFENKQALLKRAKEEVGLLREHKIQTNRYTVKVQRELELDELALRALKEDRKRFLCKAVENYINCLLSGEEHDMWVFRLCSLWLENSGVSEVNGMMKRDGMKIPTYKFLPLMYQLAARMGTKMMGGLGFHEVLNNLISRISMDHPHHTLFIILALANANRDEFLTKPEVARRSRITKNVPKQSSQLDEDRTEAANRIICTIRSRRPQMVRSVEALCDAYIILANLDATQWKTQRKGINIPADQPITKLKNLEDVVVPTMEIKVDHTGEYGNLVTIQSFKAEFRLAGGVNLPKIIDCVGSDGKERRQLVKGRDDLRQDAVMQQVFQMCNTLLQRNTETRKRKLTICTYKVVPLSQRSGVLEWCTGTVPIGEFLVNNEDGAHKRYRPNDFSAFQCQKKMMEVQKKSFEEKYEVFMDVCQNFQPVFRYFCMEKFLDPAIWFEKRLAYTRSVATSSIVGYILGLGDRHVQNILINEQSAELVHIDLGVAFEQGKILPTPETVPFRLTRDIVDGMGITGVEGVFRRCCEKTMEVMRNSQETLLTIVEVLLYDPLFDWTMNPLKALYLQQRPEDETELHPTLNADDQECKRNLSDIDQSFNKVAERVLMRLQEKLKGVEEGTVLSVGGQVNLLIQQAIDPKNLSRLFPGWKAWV

As for `CN(C)CCCOc1ccc(-c2ccc3ncc4c(c3c2)n(C2CCOCC2)c(=O)n4C)cn1` [AZD0156, reference compound], the values for the IC50 in experiment [1] and in experiment [2] were 9.87 nM and 9.8 nM, respectively. Also, the “Inh % (inhibitory effect on ATM kinase activity)” value at ATM kinase (Conc. 1 nM) is 90%; at ATM kinase (Conc. 10 nM), 95%; at ATM kinase (Conc. 100 nM) it was 100%.
`CN(C)CCCOc1ccc(-c2ccc3ncc4cnc(C5CCOCC5)n4c3c2)cc1` [Example 1, N,N-dimethyl-3-(4-(1-(tetrahydro-2H-pyran-4-yl)imidazo[1,5-a]quinoxalin-8-yl)phenoxy)propan-1-amine]: the figures for the IC50 in experiment [1] (setting [3]) and in experiment [2] were 103 nM and 123 nM, respectively. The inhibition at 0.001 µM on ATM kinase (setting [4]) came to 25%. Further, the inhibition at 0.01 µM at ATM kinase (setting [5]) is 71%. On ATM kinase (Conc. 100 nM, read-out: Inh % (inhibitory effect on ATM kinase activity)), the inhibition at 0.1 µM was 96%.
On to `Cc1nc(C2CCOCC2)n2c1cnc1ccc(-c3ccc(OCCCN(C)C)nc3)cc12` [Example 2, N,N-dimethyl-3-((5-(3-methyl-1-(tetrahydro-2H-pyran-4-yl)imidazo[1,5-a]quinoxalin-8-yl)pyridin-2-yl)oxy)propan-1-amine], for which the IC50 in experiment [1] (setting [3]) worked out at 18.8 nM; in experiment [2], 19.2 nM. In addition, at ATM kinase (setting [6]), the inhibition at 0.0001 µM worked out at 45%. Besides, the inhibition at 0.001 µM on ATM kinase (setting [4]) is 59%. Besides, at ATM kinase (setting [5]), the inhibition at 0.01 µM was found to be 96%.
Consider `Cc1nc(C2CCOCC2)n2c1cnc1ccc(-c3ccc(OCCCN(C)C)cc3)cc12` [Example 3, N,N-dimethyl-3-(4-(3-methyl-1-(tetrahydro-2H-pyran-4-yl)imidazo[1,5-a]quinoxalin-8-yl)phenoxy)propan-1-amine], for which the IC50 in experiment [1] (setting [3]) is 29.1 nM; in experiment [2], 40.2 nM. Moreover, the inhibition at 0.01 µM on ATM kinase (setting [5]) worked out at 98%.
On the same counts, the results for `Cc1nc(C2CCOCC2)n2c1cnc1ccc(-c3ccc(OCCCN(C)C)c(F)c3)cc12` [Example 4, N,N-dimethyl-3-(2-fluoro-4-(3-methyl-1-(tetrahydro-2H-pyran-4-yl)imidazo[1,5-a]quinoxalin-8-yl)phenoxy)propan-1-amine] are 38.9 nM, 41.1 nM and 97%.
As to `Cc1nc(C2CCOCC2)n2c1cnc1ccc(-c3ccc(OCCCN(C)C)c(C(F)(F)F)c3)cc12` [Example 5, N,N-dimethyl-3-(4-(3-methyl-1-(tetrahydro-2H-pyran-4-yl)imidazo[1,5-a]quinoxalin-8-yl)-2-(trifluoromethyl)phenoxy)propan-1-amine], the IC50 was found to be 21.9 nM in experiment [1] (setting [3]) and 19.5 nM in experiment [2]. The inhibition at 0.0001 µM at ATM kinase (setting [6]) came to 47%. At ATM kinase (setting [4]), the inhibition at 0.001 µM is 97%. The inhibition at 0.01 µM at ATM kinase (setting [5]) turned out to be 99%.
As for `Cc1nc(N2C[C@@H](C)O[C@@H](C)C2)n2c1cnc1ccc(-c3ccc(OCCc4c[nH]cn4)nc3)cc12` [Example 35, (2S,6R)-4-(8-(6-(2-(1H-imidazol-4-yl)ethoxy)pyridin-3-yl)-3-methylimidazo[1,5-a]quinoxalin-1-yl)-2,6-dimethylmorpholine], the values for the IC50 in experiment [1] (setting [3]) and in experiment [2] were 419 nM and 564 nM, respectively.
For `CC(C)c1nc(N2C[C@@H](C)O[C@@H](C)C2)n2c1cnc1ccc(-c3ccc(OCCCN(C)C)nc3)cc12` [Example 42, 3-((5-(1-((2S,6R)-2,6-dimethylmorpholino)-3-isopropylimidazo[1,5-a]quinoxalin-8-yl)pyridin-2-yl)oxy)-N,N-dimethylpropan-1-amine] the same measures were 533 nM and 852 nM.
For `C[C@@H]1CN(c2ncc3cnc4ccc(-c5ccc(N6CCC(N(C)C)CC6)nc5)cc4n23)C[C@H](C)O1` [Example 45, 1-(5-(1-((2S,6R)-2,6-dimethylmorpholino)imidazo[1,5-a]quinoxalin-8-yl)pyridin-2-yl)-N,N-dimethylpiperidin-4-amine] the same measures were 18.8 nM and 20.9 nM.
On the same counts, the results for `Cc1nc(N2C[C@@H](C)O[C@@H](C)C2)n2c1cnc1ccc(-c3ccc(N(C)CCCN(C)C)nc3)cc12` [Example 47, N^1-(5-(1-((2S,6R)-2,6-dimethylmorpholino)-3-methylimidazo[1,5-a]quinoxalin-8-yl)pyridin-2-yl)-N^1,N^3,N^3-trimethylpropane-1,3-diamine] are 126 nM and 17.9 nM.
As to `Cc1nc(N2C[C@@H](C)O[C@@H](C)C2)n2c1cnc1ccc(-c3ccc(N4CCC(N5CCC5)CC4)nc3)cc12` [Example 52, (2S,6R)-4-(8-(6-(4-(azetidin-1-yl)piperidin-1-yl)pyridin-3-yl)-3-methylimidazo[1,5-a]quinoxalin-1-yl)-2,6-dimethylmorpholine], the IC50 in experiment [1] (setting [3]) is 6.1 nM; in experiment [2] it was 5.5 nM.
For the compound `Cc1nc(N2C[C@@H](C)O[C@@H](C)C2)n2c1cnc1ccc(-c3ccc(CCN4CCN(C)CC4)nc3)cc12` [Example 60, (2S,6R)-2,6-dimethyl-4-(3-methyl-8-(6-(2-(4-methylpiperazin-1-yl)ethyl)pyridin-3-yl)imidazo[1,5-a]quinoxalin-1-yl)morpholine], the values for the IC50 in experiment [1] (setting [3]) and in experiment [2] were 832 nM and > 1000 nM, respectively.
For the compound `Cc1nc(N2C[C@@H](C)O[C@@H](C)C2)n2c1cnc1ccc(-c3ccc(OCCCN(C)C)c(F)c3)cc12` [Example 61, 3-(4-(1-((2S,6R)-2,6-dimethylmorpholino)-3-methylimidazo[1,5-a]quinoxalin-8-yl)-2-fluorophenoxy)-N,N-dimethylpropan-1-amine], the IC50 in experiment [1] (setting [3]) amounted to 20.8 nM; in experiment [2], 21.7 nM.
Regarding `Cc1nc(N2C[C@@H](C)O[C@@H](C)C2)n2c1cnc1ccc(-c3ccc(OCCCN(C)C)c(Cl)c3)cc12` [Example 62, 3-(2-chloro-4-(1-((2S,6R)-2,6-dimethylmorpholino)-3-methylimidazo[1,5-a]quinoxalin-8-yl)phenoxy)-N,N-dimethylpropan-1-amine], the IC50 stood at 34 nM in experiment [1] (setting [3]) and 43 nM in experiment [2].
